# ChEMBL document CHEMBL1126332 (Bioorg Med Chem Lett, 1992)
# Active and inactive are the calls of the source. No cut-off for these calls is given here.
# Columns and labels:
# Oryctolagus cuniculus = species on record: Oryctolagus cuniculus; test: The ability to inhibit iron-dependent lipid peroxidation of rabbit brain homogenate; not active at the highest concentration (30 ug/mL) tested; No activity; assay type: functional
# [1] = target: T1, Polyunsaturated fatty acid 5-lipoxygenase (Homo sapiens, UniProt P09917); test: Inhibition of [14C]arachidonic acid conversion to 5-HETE by broken cell 5-LO isolated from guinea pig PMN; not active at the highest concentration (3 ug/mL) tested; No activity; assay type: functional, Cavia porcellus; conditions: target entry is the homologue from another species
# T1 sequence (P09917 whole entry): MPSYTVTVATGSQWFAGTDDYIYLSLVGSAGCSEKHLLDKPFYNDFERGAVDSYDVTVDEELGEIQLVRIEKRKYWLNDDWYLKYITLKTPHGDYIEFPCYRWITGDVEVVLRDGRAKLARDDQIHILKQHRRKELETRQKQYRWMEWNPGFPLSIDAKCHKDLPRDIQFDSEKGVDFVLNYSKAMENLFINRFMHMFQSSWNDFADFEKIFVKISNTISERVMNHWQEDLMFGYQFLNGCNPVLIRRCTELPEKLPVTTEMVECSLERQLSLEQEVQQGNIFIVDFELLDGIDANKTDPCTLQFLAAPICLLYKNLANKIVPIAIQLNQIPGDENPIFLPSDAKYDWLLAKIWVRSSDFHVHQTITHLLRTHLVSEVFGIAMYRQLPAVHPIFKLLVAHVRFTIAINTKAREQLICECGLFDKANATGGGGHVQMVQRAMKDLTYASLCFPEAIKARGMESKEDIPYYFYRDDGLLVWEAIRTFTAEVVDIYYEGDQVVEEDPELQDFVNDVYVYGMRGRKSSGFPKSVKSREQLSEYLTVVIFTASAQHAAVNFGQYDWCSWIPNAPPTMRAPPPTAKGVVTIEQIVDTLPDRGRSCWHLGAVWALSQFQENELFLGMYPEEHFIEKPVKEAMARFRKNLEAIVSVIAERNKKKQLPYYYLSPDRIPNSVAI
structure (smiles),measurement,setting,value
CC1=NN(CCOc2ccc3ccccc3c2)C(=O)C1(C)C,MIC,Oryctolagus cuniculus,inactive
same,IC50,[1],Not Active
